The source of these data is ChEMBL document CHEMBL3217523, “Design and syntheses of some iminosugar derivatives as potential immunosuppressants” (Medchemcomm, 2011).

Data set [1] is described as follows: (§1) Antiproliferative activity against Con A-induced BALB/c mouse splenocytes at 30 uM after 48 hrs by CCK-8 method relative to control. The format is functional. As to conditions: Splenocyte.
A further data set relates to Splenocyte. The description is as §1. In kind it is functional.
Data set [2] is described as follows: Cytotoxicity against BALB/c mouse splenocytes up to 110 uM after 48 hrs by CCK-8 method. In kind it is cell-based. The note with it: splenocyte.
Data set [3] in a line: Antiproliferative activity against Con A-induced BALB/c mouse splenocytes after 48 hrs by CCK-8 method relative to control. The format is functional, cell-based. As to conditions: Splenocyte.

Structures are written as SMILES. Activity calls are given as the source filed them. The rule behind the calls is not given here.

`CCCCCCN1[C@H](CO)[C@H](O)C(O)[C@@H](O)[C@H]1CO` (stereo not given in full) registered an inhibition at 30 µM in data set [1] of 25.5%.

In turn, `O=C(O)[C@H]1N[C@H](CO)[C@H](O)[C@H](O)[C@H]1O` showed an inhibition at 30 µM in data set [1] of 7.2%.

Compound `OC[C@H]1C[C@@H](O)[C@@H](O)[C@@H](CO)N1` yielded an inhibition at 30 µM in data set [1] of 22.3%.

The compound `O=C(O)[C@@H]1N[C@@H](CO)[C@H](O)[C@H](O)[C@H]1O` had an inhibition at 30 µM in data set [1] of 21.2%.

Consider `O=C(O)CC[C@H]1N[C@H](CO)[C@H](O)[C@H](O)[C@H]1O`, for which at 30 µM the inhibition in data set [1] was 4.9%.

`OCCC[C@H]1N[C@H](CO)[C@H](O)[C@H](O)[C@H]1O` came in with an inhibition at 30 µM in data set [1] of 14.6%.

As to `O=C(O)[C@H]1N[C@@H](CO)[C@H](O)[C@H](O)[C@H]1O`, in the data set on Splenocyte, the inhibition result is “inactive”.

Regarding `CCCCCCCCCN1[C@H](CO)[C@H](O)[C@H](O)[C@@H](O)[C@H]1CCl`, in data set [2], the Activity result was “Non-toxic”. This compound displayed an inhibition at 30 µM in data set [1] of 54.1%. This compound registered an IC50 in data set [3] of 22 µM.

Take `O=C(O)CC[C@H]1N[C@@H](CO)[C@H](O)[C@H](O)[C@H]1O`: 30 µM produced 6.4% inhibition in data set [1].

Compound `OC[C@H]1N[C@H](CO)[C@H](O)C(O)[C@H]1O` (stereo not given in full) came in with an inhibition at 30 µM in data set [1] of 7.8%.

In turn, `OCCC[C@H]1N[C@@H](CO)[C@H](O)[C@H](O)[C@H]1O` displayed an inhibition at 30 µM in data set [1] of 19.3%.

Turning to `OC[C@H]1N[C@H](CCl)[C@H](O)[C@@H](O)[C@H]1O`, the inhibition at 30 µM in data set [1] amounted to 20.8%.

In data set [1], `OC[C@@H]1N[C@H](CO)[C@H](O)[C@@H](O)[C@H]1O` had an inhibition at 30 µM of 9.7%.

As for `N#CC[C@H]1N[C@H](CO)[C@H](O)[C@H](O)[C@H]1O`, the inhibition at 30 µM in data set [1] came out at 27.9%.

`CCCCCCN1[C@H](CO)[C@H](O)[C@H](O)[C@@H](O)[C@H]1CCl` registered an inhibition at 30 µM in data set [1] of 38.9%.

With `CCCCCCCCCN1[C@H](CCl)[C@H](O)[C@@H](O)[C@@H](O)[C@@H]1CO`, in data set [2], the Activity entry was “Non-toxic”. The inhibition at 30 µM in data set [1] amounted to 43.6%. Also, in data set [3], the IC50 turned out to be 45 µM.
